The results in this text go back to patent US20100249071A1, “Modulators of S1P and Methods of Making And Using” (Exelixis, Inc., priority 2009, published 2010).

The target of assay [1] is T1, hS1PR5 (hEdg8) membrane protein (Homo sapiens, UniProt Q9H228).
T1 construct: expressed in transfected cells; host or cells: CHO
Kind of assay: hS1P5R GTPγS binding assay (Assay 4). It counts as biochemical. In a few lines:
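Membranes (5 μg) from CHO cells expressing hS1PR5, incubated 1 h at room temperature with 30 μM GDP, 0.1 nM [35S]GTPγS, 0.25% fatty acid free BSA and serially diluted compound in pH 7.9 Tris buffer with MgCl2. WGA SPA beads added for another 1 h, then bound [35S]GTPγS counted by scintillation.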
In general terms: GTPγS is a poorly hydrolysed GTP analogue; its binding reports G protein activation.

Assay [2] has as its target T2, S1P1 (Homo sapiens, UniProt P21453).
T2 construct: host or cells: U2OS
Kind of assay: Tango β-arrestin recruitment assay in U2OS cells (Assay 2b). It counts as cell-based. In a few lines:
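In this agonist-mode Tango assay, U2OS cells carrying S1P1 and the reporter were serum-starved 48 h, then exposed overnight at 37 °C to compound (10 points, 3-fold, top 1 μM, 1% DMSO). β-Lactamase F460/F530 ratio was normalized to 1 μM S1P, and EC50 was fitted.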
Background: Recruitment of arrestin is a read-out of receptor activation apart from second messengers.

The target in assay [3] is T3, hS1P1R (hEdg1) membrane protein (Homo sapiens, UniProt P21453).
T3 construct: purchased Lonza
Nature of the assay: hS1P1R GTPγS binding assay (Assay 3a). It counts as biochemical. A digest of the protocol: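 Membranes (4 μg) expressing hS1P1R incubated 1 h at room temperature with 30 μM GDP, 0.1 nM [^35S]GTPγS, 0.25% fatty acid free BSA and serially diluted agonist in Tris-HCl pH 7.9/NaCl/MgCl2/EGTA buffer. Bound [^35S]GTPγS captured on WGA SPA beads (further 1 h) and counted.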

For assay [4], the target named is T4, S1P3 (Homo sapiens, UniProt Q99500).
T4 construct: host or cells: HEK293 (transient transfection)
Nature of the assay: S1P3 Tango β-arrestin recruitment assay in HEK293 cells (Assay 5). It counts as cell-based. In a few lines:
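HEK293 cells transiently expressing S1P3 fused via TEV-cleavable linker to tTA, with β-arrestin2–TEV, treated 16-18 h at 37 °C with compounds (top 10 μM, 10-point 3-fold, 1% DMSO). Luciferase reporter luminescence normalised to DMSO background and 5 μM S1P control as percent activity; EC50 from concentration-response curves.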

Read-outs that look alike come from different tables or passages of the source. Some results are limits rather than exact numbers.

T1 sequence (Q9H228 whole entry): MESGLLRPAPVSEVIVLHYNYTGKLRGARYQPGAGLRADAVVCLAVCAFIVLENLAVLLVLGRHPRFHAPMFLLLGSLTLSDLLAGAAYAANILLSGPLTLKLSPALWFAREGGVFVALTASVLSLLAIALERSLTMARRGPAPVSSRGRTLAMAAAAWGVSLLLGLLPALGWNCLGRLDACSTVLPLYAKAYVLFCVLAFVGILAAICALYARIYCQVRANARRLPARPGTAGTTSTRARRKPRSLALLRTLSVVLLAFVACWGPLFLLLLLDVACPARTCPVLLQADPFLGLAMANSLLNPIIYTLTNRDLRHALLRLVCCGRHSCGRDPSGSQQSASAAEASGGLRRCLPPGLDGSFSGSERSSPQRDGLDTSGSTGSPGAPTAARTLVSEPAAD
T3 sequence (P21453 whole entry): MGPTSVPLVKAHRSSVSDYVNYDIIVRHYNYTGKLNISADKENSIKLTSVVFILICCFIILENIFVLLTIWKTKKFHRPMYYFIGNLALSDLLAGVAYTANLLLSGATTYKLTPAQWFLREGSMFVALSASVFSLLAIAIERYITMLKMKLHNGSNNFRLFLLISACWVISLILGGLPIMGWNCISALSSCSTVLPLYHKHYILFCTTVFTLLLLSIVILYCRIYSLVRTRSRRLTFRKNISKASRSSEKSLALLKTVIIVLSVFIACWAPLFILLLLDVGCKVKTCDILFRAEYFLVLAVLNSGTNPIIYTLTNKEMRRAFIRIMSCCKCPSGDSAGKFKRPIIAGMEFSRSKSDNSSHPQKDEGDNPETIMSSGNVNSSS
T2 sequence (P32121 whole entry): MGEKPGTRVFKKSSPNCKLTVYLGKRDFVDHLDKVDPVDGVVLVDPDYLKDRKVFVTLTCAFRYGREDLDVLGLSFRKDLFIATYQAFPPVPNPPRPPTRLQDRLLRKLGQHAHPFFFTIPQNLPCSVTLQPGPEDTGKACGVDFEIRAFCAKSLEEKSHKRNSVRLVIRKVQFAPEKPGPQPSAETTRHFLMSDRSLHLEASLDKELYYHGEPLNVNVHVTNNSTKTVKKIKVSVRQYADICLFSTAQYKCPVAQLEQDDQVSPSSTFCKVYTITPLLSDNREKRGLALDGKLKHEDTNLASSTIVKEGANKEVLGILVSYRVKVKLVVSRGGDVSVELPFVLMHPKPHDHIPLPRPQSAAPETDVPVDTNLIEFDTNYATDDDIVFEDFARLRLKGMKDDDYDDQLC
T2 sequence (P21453 whole entry): as the sequence (P21453 whole entry) above
T4 sequence (P32121 whole entry): as the sequence (P32121 whole entry) above
T4 sequence (Q99500 whole entry): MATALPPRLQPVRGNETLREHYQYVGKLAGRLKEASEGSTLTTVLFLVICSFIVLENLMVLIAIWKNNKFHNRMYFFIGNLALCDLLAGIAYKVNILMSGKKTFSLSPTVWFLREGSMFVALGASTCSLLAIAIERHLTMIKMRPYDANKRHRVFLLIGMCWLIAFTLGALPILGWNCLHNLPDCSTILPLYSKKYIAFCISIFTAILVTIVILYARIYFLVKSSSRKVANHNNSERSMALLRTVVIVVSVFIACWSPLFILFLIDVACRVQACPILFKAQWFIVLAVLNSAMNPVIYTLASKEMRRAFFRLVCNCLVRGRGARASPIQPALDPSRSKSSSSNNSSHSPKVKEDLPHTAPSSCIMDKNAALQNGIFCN

As to `CC(C)Nc1ncc(-c2nnc(-c3cc(F)c(OC[C@H](N)CO)cc3Cl)s2)cc1Cl` [Entry 81, (2R)-2-amino-3-{[5-chloro-4-(5-{5-chloro-6-[(1-methylethyl)amino]pyridin-3-yl}-1,3,4-thiadiazol-2-yl)-2-fluorophenyl]oxy}propan-1-ol], the EC50 in assay [1] was 250 to 2800 nM; in assay [2] (read-out: Assay 2b EC50), 10 to 50 nM; in assay [3], 10 to 50 nM; in assay [4] (read-out: Assay 5 EC50), over 10000 nM.
For the molecule `CC(C)Oc1ccc(-c2nnc(-c3cc(F)c(OC[C@H](N)[C@H](C)OP(=O)(O)O)cc3Cl)s2)cc1C#N` [Entry 53, (1S,2S)-2-amino-3-{[5-chloro-4-(5-{3-cyano-4-[(1-methylethyl)oxy]phenyl}-1,3,4-thiadiazol-2-yl)-2-fluorophenyl]oxy}-1-methylpropyl dihydrogen phosphate], the EC50 is at most 10 nM in assay [1], at most 10 nM in assay [2] (read-out: Assay 2b EC50), at most 10 nM in assay [3] and over 10000 nM in assay [4] (read-out: Assay 5 EC50).
In the case of `CC(C)Nc1ccc(-c2nnc(-c3cc(F)c(OC[C@H](N)[C@H](C)OP(=O)(O)O)cc3Cl)s2)cn1` [Entry 54, (1S,2S)-2-amino-3-{[5-chloro-2-fluoro-4-(5-{6-[(1-methylethyl)amino]pyridin-3-yl}-1,3,4-thiadiazol-2-yl)phenyl]oxy}-1-methylpropyl dihydrogen phosphate], the EC50 in assay [1] was 10 to 50 nM; in assay [2] (read-out: Assay 2b EC50), at most 10 nM; in assay [3], at most 10 nM; in assay [4] (read-out: Assay 5 EC50), over 250 nM.
`N[C@H](CO)COc1cc(Cl)c(-c2nnc(-c3cc(F)cc(Br)c3)s2)cc1F` [Entry 24, (2R)-2-amino-3-({4-[5-(3-bromo-5-fluorophenyl)-1,3,4-thiadiazol-2-yl]-5-chloro-2-fluorophenyl}oxy)propan-1-ol]: the half-maximal effective concentration (EC50) was 250 to 2800 nM in assay [1], 50 to 250 nM in assay [2] (read-out: Assay 2b EC50), 250 to 2800 nM in assay [3] and over 10000 nM in assay [4] (read-out: Assay 5 EC50).
In the case of `CC(C)Nc1ccc(-c2nnc(-c3cc(F)c(OC[C@H](N)[C@@H](C)OP(=O)(O)O)cc3Cl)s2)cn1` [Entry 85, (1R,2S)-2-amino-3-{[5-chloro-2-fluoro-4-(5-{6-[(1-methylethyl)amino]pyridin-3-yl}-1,3,4-thiadiazol-2-yl)phenyl]oxy}-1-methylpropyl dihydrogen phosphate], the EC50 in assay [1] is 10 to 50 nM; in assay [2] (read-out: Assay 2b EC50), at most 10 nM; in assay [3] it was at most 10 nM; in assay [4] (read-out: Assay 5 EC50), over 10000 nM.
In the case of `CC(C)Oc1ncc(-c2nnc(-c3cc(F)c(OC[C@H](N)CO)cc3Cl)s2)cc1Cl` [Entry 20, (2R)-2-amino-3-{[5-chloro-4-(5-{5-chloro-6-[(1-methylethyl)oxy]pyridin-3-yl}-1,3,4-thiadiazol-2-yl)-2-fluorophenyl]oxy}propan-1-ol], the concentration for a half-maximal effect (EC50) in assay [1] was 250 to 2800 nM; in assay [2] (read-out: Assay 2b EC50), 250 to 2800 nM; in assay [3], 50 to 250 nM; in assay [4] (read-out: Assay 5 EC50), over 10000 nM.
For the molecule `CC(C)Oc1ccc(-c2nnc(-c3cc(F)c(OC[C@H](N)CO)cc3Cl)s2)cc1C(F)(F)F` [Entry 18, (2R)-2-amino-3-{[5-chloro-2-fluoro-4-(5-{4-[(1-methylethyl)oxy]-3-(trifluoromethyl)phenyl}-1,3,4-thiadiazol-2-yl)phenyl]oxy}propan-1-ol], the 50% effective concentration (EC50) in assay [1] was 10 to 50 nM; in assay [2] (read-out: Assay 2b EC50) it was 10 to 50 nM; in assay [3] it was at most 10 nM; in assay [4] (read-out: Assay 5 EC50), over 10000 nM.
Turning to `N#Cc1cc(-c2nnc(-c3cc(F)c(OC[C@H](N)CO)cc3Cl)s2)ccc1OC1COC1` [Entry 49, 5-[5-(4-{[(2R)-2-amino-3-hydroxypropyl]oxy}-2-chloro-5-fluorophenyl)-1,3,4-thiadiazol-2-yl]-2-(oxetan-3-yloxy)benzonitrile], the EC50 in assay [1] was 50 to 250 nM; in assay [2] (read-out: Assay 2b EC50), at most 10 nM; in assay [3], at most 10 nM; in assay [4] (read-out: Assay 5 EC50) it was over 10000 nM.
Consider `CC(C)Nc1ccc(-c2nnc(-c3cc(F)c(OC[C@@H](N)[C@H](C)OP(=O)(O)O)cc3Cl)s2)cn1` [Entry 93, (1S,2R)-2-amino-3-{[5-chloro-2-fluoro-4-(5-{6-[(1-methylethyl)amino]pyridin-3-yl}-1,3,4-thiadiazol-2-yl)phenyl]oxy}-1-methylpropyl dihydrogen phosphate], for which the EC50 in assay [1] was 10 to 50 nM; in assay [2] (* = rEC50 measured rather than EC50, read-out: Assay 2b rEC50 (relative EC50, cells marked *)), at most 10 nM; in assay [3] it was at most 10 nM; in assay [4] (read-out: Assay 5 EC50), over 250 nM.
Take `CC(C)Nc1ncc(-c2nnc(-c3cc(F)c(OC[C@H](N)[C@@H](C)O)cc3Cl)s2)cc1Cl` [Entry 48, (2R,3S)-3-amino-4-{[5-chloro-4-(5-{5-chloro-6-[(1-methylethyl)amino]pyridin-3-yl}-1,3,4-thiadiazol-2-yl)-2-fluorophenyl]oxy}butan-2-ol]: the EC50 in assay [1] is 250 to 2800 nM; in assay [2] (read-out: Assay 2b EC50) it was at most 10 nM; in assay [3], 10 to 50 nM; in assay [4] (read-out: Assay 5 EC50), over 10000 nM.
In the case of `Cc1cc(-c2nnc(-c3cc(F)c(OC[C@H](N)[C@H](C)O)cc3Cl)s2)ccc1OC(C)C` [Entry 61, (2S,3S)-3-amino-4-{[5-chloro-2-fluoro-4-(5-{3-methyl-4-[(1-methylethyl)oxy]phenyl}-1,3,4-thiadiazol-2-yl)phenyl]oxy}butan-2-ol], the EC50 was 10 to 50 nM in assay [1], 50 to 250 nM in assay [2] (read-out: Assay 2b EC50), at most 10 nM in assay [3] and over 10000 nM in assay [4] (read-out: Assay 5 EC50).
For `CC(C)N(C)c1cc(-c2nnc(-c3cc(F)c(OC[C@H](N)CO)cc3Cl)s2)cc(Cl)n1` [Entry 21, (2R)-2-amino-3-{[5-chloro-4-(5-{2-chloro-6-[methyl(1-methylethyl)amino]pyridin-4-yl}-1,3,4-thiadiazol-2-yl)-2-fluorophenyl)oxy}propan-1-ol], the EC50 is 50 to 250 nM in assay [1], 10 to 50 nM in assay [2] (read-out: Assay 2b EC50), 50 to 250 nM in assay [3] and over 10000 nM in assay [4] (read-out: Assay 5 EC50).
`Cc1cc(-c2nnc(-c3cc(F)c(OC[C@H](N)[C@@H](C)O)cc3Cl)s2)cnc1NC(C)C` [Entry 65, (2R,3S)-3-amino-4-{[5-chloro-2-fluoro-4-(5-{5-methyl-6-[(1-methylethyl)amino]pyridin-3-yl}-1,3,4-thiadiazol-2-yl)phenyl]oxy}butan-2-ol]: the EC50 in assay [1] was 2800 to 10000 nM; in assay [2] (read-out: Assay 2b EC50), 10 to 50 nM; in assay [3], 50 to 250 nM; in assay [4] (read-out: Assay 5 EC50), over 10000 nM.
Take `CC(C)Oc1ccc(-c2nnc(-c3cc(F)c(OC[C@H](N)[C@@H](C)O)cc3Cl)s2)cc1C#N` [Entry 82, 5-[5-(4-{[(2S,3R)-2-amino-3-hydroxybutyl]oxy}-2-chloro-5-fluorophenyl)-1,3,4-thiadiazol-2-yl]-2-[(1-methylethyl)oxy]benzonitrile]: the EC50 in assay [1] is 10 to 50 nM; in assay [2] (read-out: Assay 2b EC50) it was at most 10 nM; in assay [3], at most 10 nM; in assay [4] (read-out: Assay 5 EC50) it was over 10000 nM.
With `CC(C)Oc1ccc(-c2nnc(-c3cc(F)c(OC[C@H](N)CO)cc3Cl)s2)cn1` [Entry 35, (2R)-2-amino-3-{[5-chloro-2-fluoro-4-(5-{6-[(1-methylethyl)oxy]pyridin-3-yl}-1,3,4-thiadiazol-2-yl)phenyl]oxy}propan-1-ol], the EC50 in assay [1] was 250 to 2800 nM; in assay [2] (read-out: Assay 2b EC50), 50 to 250 nM; in assay [3], 250 to 2800 nM; in assay [4] (read-out: Assay 5 EC50), over 10000 nM.
In the case of `CC(C)N(C)c1cc(-c2nnc(-c3cc(F)c(OCC(N)CO)cc3Cl)s2)ccn1` (stereo not drawn) [Entry 41, 2-amino-3-{[5-chloro-2-fluoro-4-(5-{2-[methyl(1-methylethyl)amino]pyridin-4-yl}-1,3,4-thiadiazol-2-yl)phenyl]oxy}propan-1-ol], the half-maximal effective concentration (EC50) is over 10000 nM in assay [1], at most 10 nM in assay [2] (read-out: Assay 2b EC50), 250 to 2800 nM in assay [3] and over 10000 nM in assay [4] (read-out: Assay 5 EC50).
Turning to `COCCOc1ccc(-c2nnc(-c3cc(F)c(OC[C@H](N)CO)cc3Cl)s2)cc1C#N` [Entry 78, 5-[5-(4-{[(2R)-2-amino-3-hydroxyporpyl]oxy}-2-chloro-5-fluorophenyl)-1,3,4-thiadiazol-2-yl]-2-{[2-(methyloxy)ethyl]oxy}benzonitrile], the EC50 in assay [1] is 250 to 2800 nM; in assay [2] (read-out: Assay 2b EC50) it was 10 to 50 nM; in assay [3] it was 50 to 250 nM; in assay [4] (read-out: Assay 5 EC50) it was over 10000 nM.
Regarding `CC(C)Oc1ccc(-c2nnc(-c3cc(F)c(OC[C@@H](N)[C@@H](C)O)cc3Cl)s2)cc1C#N` [Entry 86, 5-[5-(4-{[(2R,3R)-2-amino-3-hydroxybutyl]oxy}-2-chloro-5-fluorophenyl)-1,3,4-thiadiazol-2-yl]-2-[(1-methylethyl)oxy]benzonitrile], the half-maximal effective concentration (EC50) in assay [1] was 10 to 50 nM; in assay [2] (read-out: Assay 2b EC50), at most 10 nM; in assay [3] it was at most 10 nM; in assay [4] (* = rEC50 measured rather than EC50, read-out: Assay 5 rEC50 (relative EC50, cells marked *)), over 250 nM.

One may read the EC50 as the concentration at which the effect is half-maximal.
